{
  "source": "paper PMC11645656",
  "about": "“MRGPRX4 mediates phospho-drug associated pruritus in a humanized mouse model” (Science translational medicine, 2024)",
  "key": {"MRGPRX4 (S83)": {"molecular_target": "T1, MRGPRX4 (S83) (Homo sapiens, UniProt Q96LA9, L83S)", "T1 construct": "expressed in transfected cells", "T1 sequence (Q96LA9 whole entry L83S)": "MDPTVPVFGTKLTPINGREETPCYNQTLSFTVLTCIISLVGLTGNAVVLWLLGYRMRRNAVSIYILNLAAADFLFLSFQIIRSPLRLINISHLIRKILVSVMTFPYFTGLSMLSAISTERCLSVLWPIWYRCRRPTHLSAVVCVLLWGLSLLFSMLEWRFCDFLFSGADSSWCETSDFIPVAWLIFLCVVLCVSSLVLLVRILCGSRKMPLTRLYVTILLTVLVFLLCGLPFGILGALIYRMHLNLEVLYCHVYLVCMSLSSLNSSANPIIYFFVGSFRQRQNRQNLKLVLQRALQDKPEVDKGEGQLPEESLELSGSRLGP", "experiment": "EC50 determination, intracellular calcium mobilization in MRGPRX4 stably expressed HEK293 cells (FLIPR Calcium 5, Flexstation-3)", "type": "cell-based", "settings": "for Fig. 1D dose-response, calcium response at Concentration (M): individual replicate values", "summary_of_the_method": "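HEK293 cells stably expressing receptor (parental HEK293 alongside) loaded with Calcium 5 dye in HBSS/20 mM HEPES, pH 7.4, 1 h at 37 °C, then compounds added. Response = peak minus pre-drug baseline, triplicates averaged; EC50 from 4PL fit.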"}, "[1]": {"system": "NP2-X4+ mice (MRGPRX4 in Mrgpra3+ NP2 sensory neurons)", "experiment": "Itch behavioral study (scratching bouts after subcutaneous nape injection) in NP2-X4+ mice", "type": "in vivo, mouse"}, "NP2-WT mice": {"system": "NP2-WT mice", "experiment": "Itch behavioral study (scratching bouts after subcutaneous nape injection) in littermate control NP2-WT mice", "type": "in vivo", "settings": "30 min after injection of 50 μl 10 mM into the nape, each cell one mouse"}, "[2]": {"settings": "ref ClinicalTrials.gov Identifier: NCT00327392; cited from earlier work"}, "MRGPRX4 WT (S83)": {"molecular_target": "MRGPRX4 WT (S83) (Homo sapiens, UniProt Q96LA9, L83S)", "sequence (Q96LA9 whole entry L83S)": "as above", "experiment": "PRESTO-Tango β-arrestin recruitment assay, HTLA cells stably expressing WT (S83) MRGPRX4", "type": "cell-based", "design": "expressed in transfected cells", "settings": "for PRESTO-Tango response (fig. S1), single replicate: HTLA::MRGPRX4; for fig. S7 response (raw signal), concentration-response: WT, single replicate"}},
  "note": "pEC50: −log10 of the molar value. Several values for one entry are separate records, joined by “and”; a condition that tells them apart may be missing. Equal entries are not always repeated.",
  "data": [
    {"smiles": "CC(C)c1cccc(C(C)C)c1OCOP(=O)(O)O", "note": "[Fospropofol]", "values": [
      {"measurement": "pEC50", "setting": "MRGPRX4 (S83)", "value": 8.42},
      {"measurement": "Fig. 1D dose-response, calcium response at Concentration (M)", "setting": "MRGPRX4 (S83); 390.6 pM", "value": "1.887 and 7.675 and 17.3467 and 28.1293 and 25.4823 and 35.7983 and -3.6673 and 11.7957 and 11.3767"},
      {"measurement": "Fig. 1D dose-response, calcium response at Concentration (M)", "setting": "MRGPRX4 (S83); 781.2 pM", "value": "26.5827 and 9.949 and 22.6817 and 47.5243 and 43.9493 and 46.7693 and 30.8217 and 49.6317 and 45.8127"},
      {"measurement": "Fig. 1D dose-response, calcium response at Concentration (M)", "setting": "MRGPRX4 (S83); 1.5625e-9 M", "value": "74.3117 and 80.9857 and 81.1437 and 128.989 and 99.4103 and 141.332 and 62.3957 and 66.3277 and 70.4507"},
      {"measurement": "Fig. 1D dose-response, calcium response at Concentration (M)", "setting": "MRGPRX4 (S83); 3.125e-9 M", "value": "97.9827 and 97.6007 and 113.013 and 161.554 and 132.577 and 128.455 and 112.923 and 102.472 and 92.5087"},
      {"measurement": "Fig. 1D dose-response, calcium response at Concentration (M)", "setting": "MRGPRX4 (S83); 6.25e-9 M", "value": "129.465 and 134.099 and 141.914 and 173.201 and 168.912 and 206.791 and 144.704 and 134.885 and 117.377"},
      {"measurement": "Fig. 1D dose-response, calcium response at Concentration (M)", "setting": "MRGPRX4 (S83); 1.25e-8 M", "value": "164.422 and 179.515 and 157.084 and 234.098 and 206.128 and 222.155 and 172.571 and 101.371 and 130.276"},
      {"measurement": "Fig. 1D dose-response, calcium response at Concentration (M)", "setting": "MRGPRX4 (S83); 2.5e-8 M", "value": "193.287 and 213.245 and 222.211 and 313.329 and 290.374 and 297.501 and 184.525 and 188.459 and 188.843"},
      {"measurement": "Fig. 1D dose-response, calcium response at Concentration (M)", "setting": "MRGPRX4 (S83); 5e-8 M", "value": "209.793 and 233.98 and 204.052 and 317.065 and 340.21 and 331.701 and 193.877 and 181.409 and 188.341"},
      {"measurement": "Fig. 1D dose-response, calcium response at Concentration (M)", "setting": "MRGPRX4 (S83); 1e-7 M", "value": "231.301 and 222.41 and 222.053 and 368.09 and 352.14 and 353.772 and 173.973 and 182.603 and 208.392"},
      {"measurement": "Fig. 1D dose-response, calcium response at Concentration (M)", "setting": "MRGPRX4 (S83); 2e-7 M", "value": "241.094 and 221.904 and 183.593 and 346.939 and 358.59 and 369.748 and 151.356 and 187.22 and 148.627"},
      {"measurement": "MRGPRX4 agonist activity / calcium signaling", "setting": "MRGPRX4 (S83); MRGPRX4-expressing HEK293 cells", "value": "potent agonist of MRGPRX4"},
      {"measurement": "Hill coefficient", "setting": "MRGPRX4 (S83); dose-response curve fitting, table S1", "value": 0.800},
      {"measurement": "Scratching / itch behavior, NP2-X4+ mice vs WT littermates", "setting": "[1]; 50 μl 10 mM nape injection, 30 min", "value": "significantly increased scratching behavior"},
      {"measurement": "Scratching bouts of individual animals", "setting": "[1]; NP2-X4+, 30 min after injection of 50 μl 10 mM into the nape, each cell one mouse", "value": "79 (2×) and 60 and 28 and 56 and 5 and 40 and 132 and 49 and 4 and 42 and 59 and 43 and 52"},
      {"measurement": "Scratching bouts of individual animals", "setting": "NP2-WT mice", "value": "2 and 38 and 3 and 10 and 15 and 17 and 76 and 40 and 18 and 43"},
      {"measurement": "Patients who reported paresthesia", "setting": "[2]", "value": 53.6, "unit": "%"},
      {"measurement": "Patients who reported pruritus", "setting": "[2]", "value": 26.0, "unit": "%"},
      {"measurement": "PRESTO-Tango response (fig. S1), single replicate", "setting": "MRGPRX4 WT (S83); concentration 1.95e-9 M", "value": "0.05347 and 0.06522 and 0.05931 and 0.2207 and 0.1773 and 0.1674 and 0.1338 and 0.1758 and 0.0967"},
      {"measurement": "PRESTO-Tango response (fig. S1), single replicate", "setting": "MRGPRX4 WT (S83); concentration 3.91e-9 M", "value": "0.1053 and 0.08982 and 0.09599 and 0.3062 and 0.2141 and 0.1584 and 0.1973 and 0.1505 and 0.1812"},
      {"measurement": "PRESTO-Tango response (fig. S1), single replicate", "setting": "MRGPRX4 WT (S83); concentration 7.81e-9 M", "value": "0.09268 and 0.116 and 0.1017 and 0.3688 and 0.253 and 0.2802 and 0.1468 and 0.2156 and 0.1585"},
      {"measurement": "PRESTO-Tango response (fig. S1), single replicate", "setting": "MRGPRX4 WT (S83); concentration 1.56e-8 M", "value": "0.2132 and 0.2887 and 0.213 and 0.6375 and 0.7915 and 0.6641 and 0.3649 and 0.3666 and 0.1947"},
      {"measurement": "PRESTO-Tango response (fig. S1), single replicate", "setting": "MRGPRX4 WT (S83); concentration 3.13e-8 M", "value": "0.293 and 0.3131 and 0.2408 and 1.844 and 1.563 and 1.804 and 0.7421 and 0.6696 and 0.4151"},
      {"measurement": "PRESTO-Tango response (fig. S1), single replicate", "setting": "MRGPRX4 WT (S83); concentration 6.25e-8 M", "value": "0.5602 and 0.5719 and 0.4853 and 3.825 and 3.698 and 3.023 and 1.231 and 1.143 and 1.136"},
      {"measurement": "PRESTO-Tango response (fig. S1), single replicate", "setting": "MRGPRX4 WT (S83); concentration 1.25e-7 M", "value": "0.9649 and 0.9632 and 0.8205 and 5.958 and 5.765 and 4.1962 and 2.249 and 2.15 and 1.832"},
      {"measurement": "PRESTO-Tango response (fig. S1), single replicate", "setting": "MRGPRX4 WT (S83); concentration 2.5e-7 M", "value": "1.521 and 1.3 and 1.661 and 7.755 and 5.82 and 6.8361 and 3.176 and 3.046 and 2.687"},
      {"measurement": "PRESTO-Tango response (fig. S1), single replicate", "setting": "MRGPRX4 WT (S83); concentration 5e-7 M", "value": "1.9 and 1.632 and 1.827 and 8.423 and 7.014 and 7.51 and 3.752 and 3.569 and 3.3596"},
      {"measurement": "PRESTO-Tango response (fig. S1), single replicate", "setting": "MRGPRX4 WT (S83); concentration 1e-6 M", "value": "2.509 and 2.322 and 1.947 and 8.611 and 7.367 and 6.973 and 3.852 and 4.064 and 3.742"},
      {"measurement": "PRESTO-Tango response (fig. S1), single replicate", "setting": "MRGPRX4 WT (S83); concentration 2e-6 M", "value": "2.446 and 2.467 and 2.134 and 8.437 and 7.773 and 6.136 and 3.188 and 3.088 and 4.194"},
      {"measurement": "fig. S7 response (raw signal), concentration-response", "setting": "MRGPRX4 WT (S83); 1.95e-9 M", "value": "16738 and 13375 and 17578.5 and 9669.59 and 5346.95 and 6521.98 and 5931.28 and 22070.2 and 17734.5"},
      {"measurement": "fig. S7 response (raw signal), concentration-response", "setting": "MRGPRX4 WT (S83); 3.91e-9 M", "value": "15842.1 and 19726.2 and 15050.8 and 18116.6 and 10530.6 and 8981.76 and 9599.26 and 30619.8 and 21413.5"},
      {"measurement": "fig. S7 response (raw signal), concentration-response", "setting": "MRGPRX4 WT (S83); 7.81e-9 M", "value": "28015.3 and 14682.6 and 21560.1 and 15853.2 and 9267.54 and 11599.7 and 10170.8 and 36884.4 and 25297.6"},
      {"measurement": "fig. S7 response (raw signal), concentration-response", "setting": "MRGPRX4 WT (S83); 1.56e-8 M", "value": "66409.6 and 36485.8 and 36662.8 and 19473.7 and 21324 and 28869.2 and 21303.6 and 63745.9 and 79152.7"},
      {"measurement": "fig. S7 response (raw signal), concentration-response", "setting": "MRGPRX4 WT (S83); 3.13e-8 M", "value": "180426 and 74208.2 and 66960.2 and 41510.5 and 29299.2 and 31309.9 and 24081.1 and 184359 and 156258"},
      {"measurement": "fig. S7 response (raw signal), concentration-response", "setting": "MRGPRX4 WT (S83); 6.25e-8 M", "value": "302326 and 123092 and 114256 and 113554 and 56022.5 and 57189.8 and 48533.4 and 382536 and 369774"},
      {"measurement": "fig. S7 response (raw signal), concentration-response", "setting": "MRGPRX4 WT (S83); 1.25e-7 M", "value": "419620 and 224898 and 215037 and 183215 and 96490.1 and 96321.7 and 82049.1 and 595774 and 576456"},
      {"measurement": "fig. S7 response (raw signal), concentration-response", "setting": "MRGPRX4 WT (S83); 2.5e-7 M", "value": "683610 and 317574 and 304633 and 268745 and 152100 and 129974 and 166066 and 775519 and 581976"},
      {"measurement": "fig. S7 response (raw signal), concentration-response", "setting": "MRGPRX4 WT (S83); 5e-7 M", "value": "751045 and 375202 and 356942 and 335960 and 190041 and 163176 and 182733 and 842325 and 701403"},
      {"measurement": "fig. S7 response (raw signal), concentration-response", "setting": "MRGPRX4 WT (S83); 1e-6 M", "value": "697307 and 385223 and 406436 and 374152 and 250882 and 232214 and 194658 and 861126 and 736707"},
      {"measurement": "fig. S7 response (raw signal), concentration-response", "setting": "MRGPRX4 WT (S83); 2e-6 M", "value": "613596 and 318811 and 308756 and 419448 and 244609 and 246673 and 213444 and 843724 and 777268"}
    ]}
  ]
}
